The results in this text go back to patent US20260317356A1, “SMALL MOLECULE MODULATORS OF OGG1” (AZKARRA THERAPEUTICS, INC., priority 2023, published 2026).

pKd: −log10 of the molar value.

The experiment deals with hOGG1 (Homo sapiens, UniProt O15527). Description: Surface Plasma Resonance with hOGG1 to measure compound affinity (OGG1 SPR Kd). The arrangement: Protein His-hOGG1 (12-323) was prepared. Particulars: Biacore T-200, immobilized his-tagged OGG1; pH 7.4; 2% DMSO; single-cycle kinetics. The format is binding. As to the method: Surface Plasma Resonance with hOGG1 to Measure Compound Affinity (OGG1 SPR Kd); All the SPR studies were performed on a Biacore T-200 instrument (Cytiva life sciences) using series S NTA sensor chip (cat #BR-1005-32, Cytiva life sciences). Recombinant his-tagged OGG1 (mol. wt. 36003; ChemPartner, Shanghai, China) was immobilized on NTA sensor chip via Ni^2+/NTA chelation using NTA reagent kit (Cytiva life sciences; cat #289950) as per manufacturer's recommended protocol. The running buffer during immobilization contained HEPES (20 mM, pH 7.4), 150 mM NaCl, 0.5 mM TCEP (tris(2-carboxyethyl)phosphine), and 0.005% Tween-20. NTA sensor chip (experimental cell) was first conditioned by injecting regeneration solution (350 mM EDTA, flow rate 30 μL/min, 2 injections 60 each). Additional wash with 50 mM NaOH was used whenever the chip was regenerated (flow rate 30 μL/min, 1 injection of 60 s). The sensor chip was then activated with 0.5 mM NiCl2 (flow rate 10 μL/min, 2 injection of 60 s, leading to a baseline increase of ~40 RU), and the excess Ni^2+ was removed using immobilization buffer containing 3 mM EDTA (flow rate 10 μL/min, 1 injection of 60 s). Finally, OGG1 (diluted to 6.2 μg/mL in running buffer) was injected on the activated sensor chip at a flow rate of 10 μL/min until immobilization level reached ~6000 RU. Any loosely bound protein was removed by passing the immobilization buffer overnight at 20 μL/min. At this point, the drift in baseline was ~0.01 RU/s and the final immobilization level was ~2500 RU. Reference cell was left untreated. SPR binding experiments were performed using binding buffer (20 mM HEPES (pH 7.4), 150 mM NaCl, 0.5 mM TCEP, 0.005% Tween-20, and 2% DMSO) at a flow rate of 30 μL/min. Single-cycle kinetics approach was used for binding analysis which consisted of sequential injections of increasing concentrations of test compound (a 3-fold serial dilution with 5 concentrations; highest 750 or 1500 nM; with final DMSO concentration at 2%) over the immobilized protein without regeneration step between each sample injection. Each injection was 45 seconds long (contact time), followed by a final dissociation of 600 sec. The Biacore T-200 Evaluation software 3.1 (GE Healthcare) was used to determine kinetic parameters from SPR data. All the reported sensograms were reference subtracted and corrected for refractive index contributions from solvent using 8-point solvent correction (1.4 to 2.8% DMSO in binding buffer). Data were fit to both steady state and 1:1 kinetic model to obtain Kon, Koff and binding affinity (Kd).
hOGG1, sequence (O15527 12-323): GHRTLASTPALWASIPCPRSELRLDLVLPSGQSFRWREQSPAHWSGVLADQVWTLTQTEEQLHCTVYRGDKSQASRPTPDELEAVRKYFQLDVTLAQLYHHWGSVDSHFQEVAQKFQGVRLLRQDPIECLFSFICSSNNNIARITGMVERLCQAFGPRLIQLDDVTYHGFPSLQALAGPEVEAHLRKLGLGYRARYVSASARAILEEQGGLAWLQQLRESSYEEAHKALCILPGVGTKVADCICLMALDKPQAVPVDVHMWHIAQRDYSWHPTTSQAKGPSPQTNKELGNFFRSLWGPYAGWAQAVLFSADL
For orientation: Surface plasmon resonance follows binding to a sensor surface in real time, without labels.
As to `COc1ccc(NC(=O)[C@]2(C)CC[C@H](N3Cc4c(C)ccc(OC)c4NC3=O)CC2)cc1Cl` (single isomer, unassigned) [Example 7, (1s,4s)-N-(3-chloro-4-methoxyphenyl)-4-(8-methoxy-5-methyl-2-oxo-1,2-dihydroquinazolin-3(4H)-yl)-1-methylcyclohexanecarboxamide], the pKd is 7.00 to 8.00.

As to `COc1ccc(NC(=O)[C@]2(C)CC[C@H](N3Cc4c(C)ccc(OC)c4NC3=O)CC2)cc1C#N` (single isomer, unassigned) [Example 9, (1s,4s)-N-(3-cyano-4-methoxyphenyl)-4-(8-methoxy-5-methyl-2-oxo-1,2-dihydroquinazolin-3(4H)-yl)-1-methylcyclohexanecarboxamide], the pKd is no less than 8.00. The same measure for `COc1ccc(NC(=O)[C@]2(C)CC[C@H](N3Cc4c(C)ccc(OC)c4NC3=O)CC2)cc1C` (single isomer, unassigned) [Example 11, (1s,4s)-N-(3-methyl-4-methoxyphenyl)-4-(8-methoxy-5-methyl-2-oxo-1,2-dihydroquinazolin-3(4H)-yl)-1-methylcyclohexanecarboxamide]: no less than 8.00; for `COc1ccc(NC(=O)[C@]2(C)CC[C@H](N3Cc4c(C)cccc4NC3=O)CC2)cc1Cl` (single isomer, unassigned) [Example 103, (1s,4s)-N-(3-chloro-4-methoxyphenyl)-1-methyl-4-(5-methyl-2-oxo-1,2-dihydroquinazolin-3(4H)-yl)cyclohexanecarboxamide]: 7.00 to 8.00. For the compound `COc1ccc(NC(=O)[C@H]2CC[C@@H](N3Cc4c(C)ccc(OC)c4NC3=O)CC2)cc1C#N` [Example 2, (1s,4s)-N-(3-Cyano-4-methoxyphenyl)-4-(8-methoxy-5-methyl-2-oxo-1,2-dihydroquinazolin-3(4H)-yl)cyclohexanecarboxamide], the pKd is 7.00 to 8.00. The compound `COc1ccc(NC(=O)[C@H]2CC[C@@H](N3Cc4c(C)ccc(OC)c4NC3=O)CC2)cc1Cl` [Example 3, (1s,4s)-N-(3-Chloro-4-methoxyphenyl)-4-(8-methoxy-5-methyl-2-oxo-1,2-dihydroquinazolin-3(4H)-yl)cyclohexanecarboxamide] had a pKd of 7.00 to 8.00. The same measure for `COc1ccc(NC(=O)[C@H]2CC[C@@H](N3Cc4c(C)ccc(OC)c4NC3=O)CC2)cc1C` [Example 4, (1s,4s)-N-(3-Methyl-4-methoxyphenyl)-4-(8-methoxy-5-methyl-2-oxo-1,2-dihydroquinazolin-3(4H)-yl)cyclohexanecarboxamide]: 7.00 to 8.00; for `COc1cc(NC(=O)[C@H]2CC[C@@H](N3Cc4c(C)ccc(P(C)(C)=O)c4NC3=O)CC2)ccc1C` [Example 5, (1s,4s)-4-(8-(Dimethylphosphoryl)-5-methyl-2-oxo-1,2-dihydroquinazolin-3(4H)-yl)-N-(3-methoxy-4-methylphenyl)cyclohexanecarboxamide]: no less than 8.00; for `COc1cc(NC(=O)[C@]2(C)CC[C@H](N3Cc4c(C)ccc(OC)c4NC3=O)CC2)ccc1C` [Example 13, (1s,4s)-N-(3-Methoxy-4-methylphenyl)-4-(8-methoxy-5-methyl-2-oxo-1,2-dihydroquinazolin-3(4H)-yl)-1-methylcyclohexanecarboxamide]: 7.00 to 8.00. `COc1ccc(NC(=O)[C@H]2CC[C@@H](N3Cc4c(C)ccnc4NC3=O)CC2)cc1Cl` [Example 14, (1s,4s)-N-(3-Chloro-4-methoxyphenyl)-4-(5-methyl-2-oxo-1,2-dihydropyrido[2,3-d]pyrimidin-3(4H)-yl)cyclohexanecarboxamide] showed a pKd of 7.00 to 8.00. The same measure for `COc1ccc(NC(=O)[C@H]2CC[C@@H](N3Cc4c(C)ccnc4NC3=O)CC2)cc1` [Example 15, (1s,4s)-N-(4-methoxyphenyl)-4-(5-methyl-2-oxo-1,2-dihydropyrido[2,3-d]pyrimidin-3(4H)-yl)cyclohexanecarboxamide]: 7.00 to 8.00.

Consider `COc1ccc(NC(=O)[C@H]2CC[C@@H](N3Cc4c(C)ccnc4NC3=O)CC2)cc1C` [Example 16, (1s,4s)-N-(4-Methoxy-3-methylphenyl)-4-(5-methyl-2-oxo-1,2-dihydropyrido[2,3-d]pyrimidin-3(4H)-yl)cyclohexanecarboxamide], for which the pKd is no less than 8.00.

In the case of `COc1cc(NC(=O)[C@H]2CC[C@@H](N3Cc4c(C)ccc(CNC(C)=O)c4NC3=O)CC2)ccc1C` [Example 17, (1s,4s)-4-(8-(Acetamidomethyl)-5-methyl-2-oxo-1,2-dihydroquinazolin-3(4H)-yl)-N-(3-methoxy-4-methylphenyl)cyclohexanecarboxamide], the pKd is no less than 8.00. The same measure for `COc1cc(NC(=O)[C@H]2CC[C@@H](N3Cc4c(C)cnc(CNC(C)=O)c4NC3=O)CC2)ccc1C` [Example 19, (1s,4s)-4-(8-(Acetamidomethyl)-5-methyl-2-oxo-1,2-dihydropyrido[3,4-d]pyrimidin-3(4H)-yl)-N-(3-methoxy-4-methylphenyl)cyclohexanecarboxamide]: no less than 8.00; for `COc1cc(NC(=O)[C@H]2CC[C@@H](N3Cc4c(C)cc(CN)cc4NC3=O)CC2)ccc1C` [Example 28, (1s,4s)-4-(7-(Aminomethyl)-5-methyl-2-oxo-1,2-dihydroquinazolin-3(4H)-yl)-N-(3-methoxy-4-methylphenyl)cyclohexanecarboxamide]: no less than 8.00. The same measure for `COc1cc(NC(=O)[C@H]2CC[C@@H](N3Cc4c(C)cc(N5CC6(COC6)C5)cc4NC3=O)CC2)ccc1C` [Example 30, (1s,4s)-N-(3-Methoxy-4-methylphenyl)-4-(5-methyl-2-oxo-7-(2-oxa-6-azaspiro[3.3]heptan-6-yl)-1,2-dihydroquinazolin-3(4H)-yl)cyclohexanecarboxamide]: 6.00 to 7.00. The same measure for `COc1cc(NC(=O)[C@H]2CC[C@@H](N3Cc4c(C)ccc(N5CC6(COC6)C5)c4NC3=O)CC2)ccc1C` [Example 35, (1s,4s)-N-(3-Methoxy-4-methylphenyl)-4-(5-methyl-2-oxo-8-(2-oxa-6-azaspiro[3.3]heptan-6-yl)-1,2-dihydroquinazolin-3(4H)-yl)cyclohexanecarboxamide]: 7.00 to 8.00; for `COc1cc(NC(=O)[C@H]2CC[C@@H](N3Cc4c(C)ccnc4NC3=O)CC2)ccc1C` [Example 41, (1s,4s)-N-(3-Methoxy-4-methylphenyl)-4-(5-methyl-2-oxo-1,2-dihydropyrido[2,3-d]pyrimidin-3(4H)-yl)cyclohexanecarboxamide]: 7.00 to 8.00. In turn, `COc1cc(NC(=O)[C@H]2CC[C@@H](N3Cc4c(C)ccc(OCC5CNC5)c4NC3=O)CC2)ccc1C` [Example 44, (1s,4s)-4-(8-(Azetidin-3-ylmethoxy)-5-methyl-2-oxo-1,2-dihydroquinazolin-3(4H)-yl)-N-(3-methoxy-4-methylphenyl)cyclohexanecarboxamide] gave a pKd of 7.00 to 8.00. The same measure for `COc1cc(NC(=O)[C@H]2CC[C@@H](N3Cc4c(C)ccc(OC5CNC5)c4NC3=O)CC2)ccc1C` [Example 45]: 7.00 to 8.00. `COc1cc(NC(=O)[C@H]2CC[C@@H](N3Cc4c(C)ccc(OC)c4NC3=O)CC2)ccc1C` [Example 47, (1s,4s)-N-(3-Methoxy-4-methylphenyl)-4-(8-methoxy-5-methyl-2-oxo-1,2-dihydroquinazolin-3(4H)-yl)cyclohexanecarboxamide] had a pKd of 7.00 to 8.00. The same measure for `COc1cc(NC(=O)[C@H]2CC[C@@H](N3Cc4c(C)ccc(CN)c4NC3=O)CC2)ccc1C` [Example 58, (1s,4s)-4-(8-(aminomethyl)-5-methyl-2-oxo-1,2-dihydroquinazolin-3(4H)-yl)-N-(3-methoxy-4-methylphenyl)cyclohexanecarboxamide]: 7.00 to 8.00. The same measure for `COc1cc(NC(=O)[C@H]2CC[C@@H](N3Cc4c(C)ccc(C#N)c4NC3=O)CC2)ccc1C` [Example 59, (1s,4s)-4-(8-cyano-5-methyl-2-oxo-1,2-dihydroquinazolin-3(4H)-yl)-N-(3-methoxy-4-methylphenyl)cyclohexanecarboxamide]: 7.00 to 8.00; for `COc1cc(NC(=O)[C@H]2CC[C@@H](N3Cc4ccccc4NC3=O)CC2)ccc1C` [Example 67, (1s,4s)-N-(3-methoxy-4-methylphenyl)-4-(2-oxo-1,2-dihydroquinazolin-3(4H)-yl)cyclohexanecarboxamide]: 7.00 to 8.00.

The pKd is the Kd on a negative log10 scale, so that one unit is a factor of ten.
